# Results reported in patent publication EP2667887B1, “PHARMACEUTICAL COMPOSITION COMPRISING THE PEPTIDE GLU-ASP-GLY AND USE FOR TREATING HELICOBACTER PYLORI INDUCED GASTRODUODENAL DISEASES” («Garmonia», Ltd., priority 2011, dated 2012).
# Key:
# [1] = tested on: human gastric epithelium cells SGC7901; assay: Effect on Helicobacter pylori-induced mitochondrial mechanisms of apoptosis in gastric epitheliocytes (mito-GFP confocal microscopy); assay type: cell-based; conditions: peptide 10 µM 30 minutes before Helicobacter pylori (strain Cag J117), 7 hours
# Description: To evaluate the biological activity and effects of peptide H-Glu-Asp-Gly-OH on mitochondrial mechanisms of apoptosis in gastric epitheliocytes, induced by Helicobacter pylori germs, human gastric epithelium cells SGC7901 were studied. The cells were cultivated at 37°C in a damp incubation medium containing 50 mL/L CO2 in DMEM (Dulbecco's Modified Eagle's Medium, ICN Biomedicals) and 10% calf embryonic serum. A preliminary separation of cells for passaging was carried out in the ratio of 1:3-1:5 using a mixture of 0.125% trypsin, 0.02M EDTA (ethylenediaminetetraacetic acid), 0.02% glucose dissolved in a phosphate buffer. The cells were placed on a 24-well plate in the amount of 10^6 cells per well. The cells were passaged in a cultivation medium for 5 days and then taken for study.
# On the 5th day after the beginning of cell passaging the peptide H-Glu-Asp-Gly-OH in the dose of 10 µM was administered in the cultivation medium, and in 30 minutes of incubation the cells were taken for study. Klacid antibiotic (clarithromycin, Abbott) in the dose of 500 ng/mL was administered to the cultures in the same conditions as positive control. […]
# The status of isolated mitochondria was evaluated using immunofluorescent confocal laser microscopy. […]
# Confocal microscopy of mitochondria with optical density evaluation was performed in an inverted confocal microscope Olympus Fluoview CM FV300-IX70 using an apochromatic lens 606 UPlan (Olympus). A 488 nm excitation wave of argon laser was used in each chamber to specify mito-GFP fluorescence that verifies the structure of mitochondria.
# [2] = tested on: constitutive and inducible NO synthase (cNO and iNO respectively), HSP70, and NF-kappa b-p65 factor; assay: Western blot of signal molecules from ulcer edge in the rat gastric ulcer model with Helicobacter pylori; assay type: in vivo, Sprague Dawley rats; conditions: 7th day from ulcer induction; doses of 1 µg to 10 µg per kg of body weight daily for 5 days
# Description: The study was carried out on 90 male Sprague Dawley rats (180-220 g) randomly subdivided into 9 groups (10 animals per group): • Group 1 - intact rats (saline solution) • Group 2 - modeled ulcer + saline solution • Group 3 (6 subgroups) - modeled ulcer + H-Glu-Asp-Gly-OH • Group 4 - modeled ulcer + Klacid antibiotic
# Ulcer was modeled by three-time administration (in 4 hours) in the rat stomach of cysteamine-HCL (Aldrich, Milwannee, WI) by means of a probe in the dose of 25 mg per 100 g of body weight. The ulcer, approximately 28 mm^2 in size, appeared at the boundary between antral and fundal segments of the stomach 12 hours after the last administration. Simultaneously with the first administration of cysteamine-HCL a Helicobacter pylori culture (Curtin Matheson Scientific Inc, strain Cag J117, 100 microbial cells) was administered in the rat stomach through the same probe.
# A means on the basis of the pharmaceutical composition comprising the studied peptide H-Glu-Asp-Gly-OH was administered subcutaneously in the dose of 1 µg per kg of animal body weight (group 3a), 2,5 µg per kg of body weight (group 3b) and 10 µg per kg of body weight (group 3c) in 0,5 ml of saline solution daily, for 5 days from the occurrence of the stomach ulcer. […]
substance,measurement,setting,value
glutamyl-aspartyl-glycine [H-Glu-Asp-Gly-OH],mitochondrial GFP expression by optical density,"[1]; control 2.57±0.23, H. pylori alone 0.35±0.05",2.48±0.17 conv. units
same,mitochondrial GFP expression by expression area,"[1]; control 3.42±0.19, H. pylori alone 0.63±0.03",3.84±0.20%
same,"level of production of signal molecules (both NO synthase forms, HSP70, NF kappa b-p65) in the mucous membrane of the edge of the ulcer",[2],comparable with commonly normal indices
